Source: paper PMC12224939, “Trypstatin as a Novel TMPRSS2 Inhibitor with Broad‐Spectrum Efficacy against Corona and Influenza Viruses” (Advanced Science, 2025)
Entries after “also recorded” stand apart in the source; their conditions may differ. Bridge positions count the residues as written; N and C are the ends.

Legend:
[1] = test system: lentiviral pseudoparticles harboring VSV-G glycoprotein; assay type: cell-based
[2] = target: T1, cathepsin B from human placenta (Homo sapiens, UniProt P07858); experiment: Cathepsin B activity assay; assay type: biochemical; settings: enzyme from human placenta
T1 construct: cathepsin B from human placenta (Sigma Aldrich #C0150); purchased Sigma Aldrich C0150; host or cells: human placenta (tissue-derived)
Method: (§1) Cathepsin enzyme activity assays were performed as described before.^[ [42] ^] In brief, serially diluted compounds were mixed with recombinant cathepsin L (R&D #952‐Cy) in assay buffer (50 mM MES, 5 mM DTT, 1 mM EDTA, 0.005% Brij35, pH 6) or with cathepsin B from human placenta (Sigma Aldrich #C0150) in assay buffer (105.6 mM KH2PO4, 14.4 mM Na2HPO4, 1.2 mM EDTA, 0.07% Brij35, 2.4 mM L‐cysteine, pH 6). The protease‐inhibitor mixtures were incubated for 10 min at RT before the addition of the respective fluorogenic reporter substrate Z‐Leu‐Arg‐AMC (for cathepsin L; Bachem #4034611) or Z‐Arg‐Arg‐AMC (for cathepsin B; Bachem #4004789). The final concentrations were as follows: Cathepsin L 0.01 µg mL^−1, cathepsin B 1 µg mL^−1, Z‐Leu‐Arg‐AMC 40 µM or Z‐Arg‐Arg‐AMC 30 µM. Fluorescence intensity was recorded at an excitation wavelength of 380 nm and emission wavelength of 460 nm after 25 min at 37 °C (cathepsin L) or after 60 min at 40 °C (cathepsin B) in a Synergy H1 microplate reader (BioTek) with Gen 5 3.04 software.

SARS-CoV-2 Delta = settings: hamster, in vivo
[3] = test system: IL-1ß, IL-6, CCL5, CXCL10, IRF1 expression in HAECs; assay type: cell-based, human
[4] = target: T2, TMPRSS2 Syrian gold hamster (Mesocricetus auratus, UniProt A0A1U8C7C8); experiment: Cellular hamster TMPRSS2 activity assay in transfected HEK293T cells; assay type: cell-based; settings: compared with human TMPRSS2
T2 construct: encoding the respective transmembrane serine protease per well; host or cells: HEK293T
T2 sequence (A0A1U8C7C8 1-492): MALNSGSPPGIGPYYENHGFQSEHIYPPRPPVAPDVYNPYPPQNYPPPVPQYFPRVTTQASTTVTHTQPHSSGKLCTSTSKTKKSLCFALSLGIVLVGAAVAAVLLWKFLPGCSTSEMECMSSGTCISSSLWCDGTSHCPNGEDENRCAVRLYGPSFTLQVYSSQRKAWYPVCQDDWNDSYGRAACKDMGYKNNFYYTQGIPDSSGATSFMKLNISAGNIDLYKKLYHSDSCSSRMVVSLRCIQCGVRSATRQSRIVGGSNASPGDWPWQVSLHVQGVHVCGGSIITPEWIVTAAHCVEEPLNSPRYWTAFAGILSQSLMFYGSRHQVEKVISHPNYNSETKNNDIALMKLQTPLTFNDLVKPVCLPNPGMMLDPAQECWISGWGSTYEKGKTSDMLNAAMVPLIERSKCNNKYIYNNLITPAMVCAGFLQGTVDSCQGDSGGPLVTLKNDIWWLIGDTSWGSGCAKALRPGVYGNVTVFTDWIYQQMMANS
Method: Twenty thousand HEK293T cells were seeded in a 96‐well flat bottom plate. The next day, cells were transfected with 100 ng of an expression plasmid (Backbone: Twist Bioscience, EF1alpha mammalian expression vector) encoding the respective transmembrane serine protease per well using LT1 transfection reagent (TMPRSS2 human NCBI RefSeq: NP_005647.3; TMPRSS2 Syrian gold hamster NCBI RefSeq: XP_012971683.1; TMPRSS11D NCBI RefSeq: NP_004253.1; TMPRSS13 NCBI RefSeq: NP_001070731.1). In short, plasmid DNA was mixed in a 1:3 ratio with LT1 in a serum‐free medium and incubated for 20 min before the mixture was applied dropwise onto the cells. Sixteen hours post‐transfection, the medium was replaced by a serum‐free medium, and cells were treated with serial dilution of compounds in PBS. After 15 min of incubation at 37 °C, 100 µM of respective protease‐specific substrate (TMPRSS2: Boc‐QAR‐AMC, Bachem # 4017019; TMPRSS11D: Boc‐FSR‐AMC, Bachem # 4012340; TMPRSS13: Pyr‐RTKR‐AMC, Bachem #4018149) was added and incubated for 2 h at 37 °C. Fluorescence intensity was recorded at an excitation wavelength of 380 nm and emission wavelength of 460 nm in a Synergy H1 microplate reader (BioTek) with Gen 5 3.04 software. Values were background corrected for non‐transfected HEK293T‐cells. […]

TMPRSS14 (Matriptase) = target: T3, TMPRSS14 (Matriptase) (Homo sapiens, UniProt Q9Y5Y6); experiment: Recombinant TMPRSS14 activity assay; assay type: biochemical; settings: recombinant enzyme
T3 construct: purchased 3946
T3 sequence (Q9Y5Y6 whole entry): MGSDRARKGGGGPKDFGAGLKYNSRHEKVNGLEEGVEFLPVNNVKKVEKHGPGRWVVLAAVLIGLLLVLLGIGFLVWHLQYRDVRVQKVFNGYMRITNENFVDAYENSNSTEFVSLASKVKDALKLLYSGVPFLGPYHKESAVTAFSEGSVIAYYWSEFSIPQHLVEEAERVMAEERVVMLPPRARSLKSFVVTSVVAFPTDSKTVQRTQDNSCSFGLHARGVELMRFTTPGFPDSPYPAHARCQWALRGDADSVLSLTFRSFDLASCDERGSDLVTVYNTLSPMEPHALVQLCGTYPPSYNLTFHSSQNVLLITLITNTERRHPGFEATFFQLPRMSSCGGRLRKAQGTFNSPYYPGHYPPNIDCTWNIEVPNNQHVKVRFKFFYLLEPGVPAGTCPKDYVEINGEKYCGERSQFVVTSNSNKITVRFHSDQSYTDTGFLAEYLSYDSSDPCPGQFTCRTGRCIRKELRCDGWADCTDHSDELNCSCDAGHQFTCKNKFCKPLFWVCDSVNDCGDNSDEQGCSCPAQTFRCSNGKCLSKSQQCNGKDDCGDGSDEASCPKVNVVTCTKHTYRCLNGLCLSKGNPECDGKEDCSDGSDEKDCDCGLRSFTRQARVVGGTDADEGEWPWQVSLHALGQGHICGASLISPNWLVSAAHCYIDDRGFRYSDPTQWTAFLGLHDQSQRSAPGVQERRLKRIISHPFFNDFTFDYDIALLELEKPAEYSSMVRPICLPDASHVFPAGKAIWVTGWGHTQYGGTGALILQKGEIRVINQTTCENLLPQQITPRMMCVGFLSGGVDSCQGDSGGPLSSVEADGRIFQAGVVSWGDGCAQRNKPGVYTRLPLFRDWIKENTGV
Method: In the next step, 50 µL of 20 µM BOC‐Gln‐Ala‐Arg‐AMC protease substrate (Bachem #4017019) in the case of TMPRSS2 and TMPRSS14 or 50 µL of 150 µM BOC‐Gln‐Arg‐Arg‐AMC (PeptaNova) in the case of TMPRSS1 was added and incubated for 2 h for TMPRSS2, or 5 mins in the case of TMPRSS1/14 at 37 °C. Fluorescence intensity was measured after 2 h at an excitation wavelength of 380 nm and emission wavelength of 460 nm in a SynergyTM H1 microplate reader (BioTek) with Gen5 3.04 software. […] Assays were performed in a total volume of 100 µL in quadruplicate wells of a 96 Nunc well plate (Thermo Scientific #10174221) with a final TMPRSS2 concentration of 20 nM. Initial velocities were measured in 50 s intervals for 15 min with excitation of 360 nm and emission of 460 nm in a SynergyTM H1 microplate reader. K m and V max were calculated from Michaelis–Menten plots using GraphPadPrism. The inhibitory constant K i was calculated from the IC50 values according to the Cheng–Prusoff equation (K i = IC50/(1 + [S]/K m)) for competitive reversible inhibitors.^[ [91] ^]

SARS-CoV-2 BA.5 = assay type: cell-based
recombinant ACE2 = target: T4, recombinant ACE2 (Homo sapiens, UniProt Q9BYF1); experiment: Recombinant ACE2 assay; assay type: biochemical
T4 construct: purchased R&D 933-ZN
T4 sequence (Q9BYF1 18-805): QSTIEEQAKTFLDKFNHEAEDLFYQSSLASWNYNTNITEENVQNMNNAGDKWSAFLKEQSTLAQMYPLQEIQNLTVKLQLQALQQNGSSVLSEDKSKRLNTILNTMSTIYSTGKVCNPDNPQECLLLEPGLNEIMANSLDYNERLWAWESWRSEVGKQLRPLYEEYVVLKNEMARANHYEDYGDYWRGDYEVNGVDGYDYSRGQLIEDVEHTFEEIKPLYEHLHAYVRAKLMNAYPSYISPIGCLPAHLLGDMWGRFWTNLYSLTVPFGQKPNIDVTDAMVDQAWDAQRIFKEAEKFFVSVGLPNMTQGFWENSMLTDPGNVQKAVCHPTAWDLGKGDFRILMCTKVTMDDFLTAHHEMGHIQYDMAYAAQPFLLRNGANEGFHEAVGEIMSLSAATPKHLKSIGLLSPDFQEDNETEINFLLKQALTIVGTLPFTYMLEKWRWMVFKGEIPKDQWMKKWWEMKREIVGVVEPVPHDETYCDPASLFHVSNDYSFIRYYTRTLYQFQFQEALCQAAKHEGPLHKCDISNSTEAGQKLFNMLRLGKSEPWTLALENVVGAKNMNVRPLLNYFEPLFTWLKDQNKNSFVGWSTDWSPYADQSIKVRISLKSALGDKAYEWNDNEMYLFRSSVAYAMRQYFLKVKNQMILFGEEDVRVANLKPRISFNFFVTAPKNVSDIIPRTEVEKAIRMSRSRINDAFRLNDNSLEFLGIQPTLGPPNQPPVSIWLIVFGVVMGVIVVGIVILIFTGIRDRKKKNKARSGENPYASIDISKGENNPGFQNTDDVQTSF
Method: To determine the activity of Trypstatin against ACE2, 25 µL of 0,4 µg mL^−1 recombinant ACE2 (R&D #933‐ZN) in assay buffer (75 mM Tris, 1 M NaCl, pH 7.5) was mixed with 25 µL of inhibitor for 15 min at 37 °C before addition of 50 µL of 40 µM of MCA‐YVADAPK(Dnp)‐OH substrate (R&D #ES007) and incubation for 5 min at 37 °C. Fluorescence intensity was measured after 5 min at an excitation wavelength of 320 nm and emission wavelength of 405 nm in a SynergyTM H1 microplate reader (BioTek) with Gen5 3.04 software.

Caco-2 cells = experiment: Cytotoxicity assay (CellTiter-Glo); assay type: cell-based, human; settings: 48 h, ATP levels, tested concentrations
Method: To assess the cytotoxicity of the inhibitors used, 10 000 Caco2 cells were seeded in a 96‐well flat bottom plate. The next day, the medium was replaced and cells were treated with serial dilutions of compounds or PBS as a control. After 48 h, cell viability was assessed by measuring ATP levels in cell lysates with a commercially available kit (CellTiter‐Glo, Promega) in an Orion II microplate reader with Simplicity 4.2 software.

cathepsin L = target: T5, cathepsin L (Homo sapiens, UniProt P07711); experiment: Cathepsin L activity assay; assay type: biochemical; settings: recombinant enzyme
T5 construct: purchased R&D 952-Cy
T5 sequence (P07711 114-333): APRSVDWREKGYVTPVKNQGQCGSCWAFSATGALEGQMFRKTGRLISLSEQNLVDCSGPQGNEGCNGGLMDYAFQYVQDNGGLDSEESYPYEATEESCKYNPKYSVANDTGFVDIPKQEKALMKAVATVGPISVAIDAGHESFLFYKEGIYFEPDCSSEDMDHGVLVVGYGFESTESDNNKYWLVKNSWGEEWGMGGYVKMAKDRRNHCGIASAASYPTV
Method: as §1

recombinant furin = target: T6, recombinant furin (Homo sapiens, UniProt P09958); experiment: Furin activity assay; assay type: biochemical
T6 construct: purchased Bachem (so in the source) 1503-SE-010
T6 sequence (P09958 108-794): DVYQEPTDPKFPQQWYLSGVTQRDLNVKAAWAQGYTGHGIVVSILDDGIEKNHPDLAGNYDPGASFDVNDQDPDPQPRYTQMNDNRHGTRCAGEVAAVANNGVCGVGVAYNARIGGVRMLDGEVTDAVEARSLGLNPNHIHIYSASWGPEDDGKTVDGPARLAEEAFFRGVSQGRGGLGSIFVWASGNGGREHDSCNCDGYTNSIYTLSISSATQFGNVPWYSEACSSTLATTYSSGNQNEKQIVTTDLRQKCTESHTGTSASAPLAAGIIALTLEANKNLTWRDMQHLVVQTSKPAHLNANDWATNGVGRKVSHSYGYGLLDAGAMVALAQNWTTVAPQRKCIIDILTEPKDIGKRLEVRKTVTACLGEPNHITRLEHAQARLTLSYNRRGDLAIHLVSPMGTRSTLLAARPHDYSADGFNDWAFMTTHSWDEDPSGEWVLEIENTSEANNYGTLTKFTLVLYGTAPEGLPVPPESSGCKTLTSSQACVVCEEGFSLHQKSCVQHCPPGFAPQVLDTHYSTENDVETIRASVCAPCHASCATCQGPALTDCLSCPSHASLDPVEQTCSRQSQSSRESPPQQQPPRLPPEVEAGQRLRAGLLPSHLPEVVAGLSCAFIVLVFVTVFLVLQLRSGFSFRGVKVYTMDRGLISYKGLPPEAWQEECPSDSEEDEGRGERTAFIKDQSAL
Method: Furin activity assay was conducted as described previously with slight changes.^[ [42] ^] In brief, Trypstatin was mixed with recombinant furin (Bachem #1503‐SE‐010, final concentration 1.0 ng µL^−1) in assay buffer (25 mM Tris, 1 mM CaCl2, pH 9) for 30 min at room temperature before the addition of […] ‐L‐pyroglutamyl‐modified RTKR‐ AMC substrate (Bachem #4018149) per well with a final concentration of 1 mM CaCl2 in water. Fluorescence intensity was recorded in 2 min intervals for 5 h at an excitation wavelength of 355 nm and emission wavelength of 460 nm at 37 °C in a Cytation 3 (BioTek) microplate reader. The area under the curve values were normalized to the furin control. Hexa‐D‐arginine served as inhibitor control.

“VAACNLPIVRGPCRAFIQLWAFDAVKGKCVLFPYGGCQGNGNKFYSEKECREYCGVPGDGD (disulfide 4-54, 13-37, 29-50 (inferred)) [Trypstatin]” was tested, and the “effect on VSV-G-mediated pseudoparticle entry” value [1] was “without affecting VSV‐G‐driven entry”, the “inhibition of Cathepsin B” value [2] was “did not inhibit” and the “clinical symptoms (piloerection, weakness, fatigue, abnormal posture)” value (SARS-CoV-2 Delta) was “almost entirely absent”. For the same sequence, the “infectious virus particles in BAL (TCID50)” value (SARS-CoV-2 Delta) was “significantly reduced”, the “side effects in hamsters” value (SARS-CoV-2 Delta) was “without observed side effects” and the “viral loads in BAL (qPCR)” value (SARS-CoV-2 Delta) was “significantly reduced”. The “effect on expression of inflammatory genes” value [3] was “failed to reach significance; also recorded: does not have a significant anti-inflammatory effect”, the “inhibition of hamster TMPRSS2” value [4] was “IC50 values similar to those for human TMPRSS2; also recorded: blocks hamster and human TMPRSS2 activity with similar efficacies” and the “inhibition of TMPRSS14” value (TMPRSS14 (Matriptase)) was “no effect”. For the same sequence, the “reduction of SARS-CoV-2 BA.5 replication over 72 h” value (SARS-CoV-2 BA.5) was “up to four orders of magnitude”, the “inhibition of ACE2” value (recombinant ACE2) was “did not inhibit; also recorded: does not inhibit” and the “cytotoxicity / cell viability” value (Caco-2 cells) was “does not influence cell viability”. For the same sequence, the “inhibition of Cathepsin L” value (cathepsin L) was “did not inhibit” and the “inhibition of Furin” value (recombinant furin) was “did not inhibit; also recorded: does not inhibit”.
